# Values quoted from earlier work in US20080287669A1, “METHODS AND COMPOSITIONS FOR IDENTIFYING COMPOUNDS USEFUL IN NUCLEIC ACID PURIFICATION” (priority 2007, published 2008).
# Where a name gives a salt, the structure may show the parent alone.
# Conditions: not given
row,Compound,Dielectric Constant (DC)
1,C[S+](C)[O-] [dimethylsulfoxide],38
2,O=C(O)C(Cl)(Cl)Cl [trichloroacetic acid],4.6
3,NC=O [formamide],111

# Same assay, conditions: Table 1, soluble organic solvents
row,Compound,Dielectric Constant (DC)
1,CC(=O)C=C(C)C [mesityl oxide],15.6
2,Brc1cccc2ccccc12 [1-bromonaphthalene],4.77
3,COC [dimethylether],6.18
4,Cc1ccccc1O [o-cresol],6.76
5,CCOP(=O)(OCC)OCC [triethyl phosphate],13.2
6,O=Cc1ccco1 [furfural],42.1
7,S=C=S [carbon disulfide],2.63
8,CCOC=O [ethyl formate],8.57
9,FC(F)(Cl)Cl [dichlorodifluoromethane],3.5
10,OCc1ccccc1 [benzyl alcohol],11.92
11,NC1CCCCC1 [cyclohexylamine],4.55
12,C[N+](=O)[O-] [nitromethane],37.27
13,O=C1CCCCC1 [cyclohexanone],16.1
14,"Cc1ccc(C)c(O)c1 [2,5-xylenol]",5.36
15,CC1CCCO1 (stereo not shown) [2-methyl-tetrahydrofuran],6.97
16,"Cc1cc(C)cc(O)c1 [3,5-xylenol]",9.06

# More lines, now with the values ahead:
row,Dielectric Constant (DC),Compound
1,6.08,CCOC(C)=O [ethyl acetate]
2,18.5,CCC=O [propanal]
3,13.45,CCCC=O [butanal]
4,26.2,"OCCCCCO [1,5-pentanediol]"
5,2.66,CCCCC(=O)O [pentanoic acid]
6,2.77,CCCCNCCCC [dibutylamine]
7,3.07,CCCNCCC [dipropylamine]

# Same assay, conditions: Table 2, very soluble organic solvents
row,Compound,Dielectric Constant (DC)
1,COCCOC(C)=O [ethylene glycol monomethylether acetate],8.25
2,CC1COC(=O)O1 (stereo not shown) [propylene carbonate],66.14
3,COC(C)=O [methylacetate],7.07
4,CN1CCCC1=O [N-methyl-2-pyrrolidone],32.2
5,FC(F)Cl [chlorodifluoromethane],6.11
6,CC(N)=O [acetamide],67.6
7,CCOCCOC(C)=O [ethylene glycol ethylether acetate],7.57
8,"Cc1ccnc(C)c1 [2,4-lutidine]",9.6
9,CN(C)C [trimethylamine],2.44
10,CC(=O)OC(C)=O [acetic anhydride],22.45
11,Cc1ccccn1 [2-picoline],10.18

# Continued, values first:
row,Dielectric Constant (DC),Compound
1,31.5,"OCCCCC(O)CO (stereo not shown) [1,2,6-hexanetriol]"
2,5.7,CCOCCOCCOCC [diethylene glycol diethyl ether]
3,11.95,CCCCCC(C)=O [methyl pentyl ketone]
4,17,CCC(=O)CC [diethylketone]
5,13.71,CCCC(C)O (stereo not shown) [2-pentanol]
6,14,CCOC(=O)CC(C)=O [ethylacetoacetate]

# Same assay, conditions: Table 3, miscible organic solvents
row,Compound,Dielectric Constant (DC)
1,"OCCCO [1,3-propanediol]",35.1
2,"CC(O)CCO (stereo not shown) [1,3-butanediol]",28.8
3,C1COCCN1 [morpholine],7.42
4,CC(C)CN [isobutylamine],4.43
5,C1CCOC1 [tetrahydrofuran],7.52
6,Cc1cccnc1 [3-picoline],11.1
7,C[S+](C)[O-] [dimethylsulfoxide],47.24
8,CC(C)O [2-propanol],20.18
9,CCN [ethylamine],8.7
10,OCc1ccco1 [furfuryl alcohol],16.85
11,CC(=O)CC(C)(C)O [diacetone alcohol],18.2
12,CC=O [acetaldehyde],21
13,C=CCO [allyl alcohol],19.7
14,O=S1(=O)CCCC1 [sulfolane],43.26
15,C1CCNC1 [pyrrolidine],8.3
16,"Cc1cccc(C)n1 [2,6-lutidine]",7.33
17,"CC(O)CO (stereo not shown) [1,2-propanediol]",27.5
18,CC(=O)O [acetic acid],6.2
19,Cc1ccncc1 [4-picoline],12.2

# More lines, now with the values ahead:
row,Dielectric Constant (DC),Compound
1,2.98,CCCC(=O)O [butanoic acid]
2,4.71,CCCCN [butylamine]
3,46.53,OCC(O)CO [glycerol]
4,31.94,NCCO [ethanolamine]
5,12.62,NCCNCCN [diethylenetriamine]
6,23.69,OCCOCCOCCO [triethyleneglycol]
7,3.44,CCC(=O)O [propanoic acid]
8,4.27,CCCCCN [pentylamine]
9,9.3,CCCCOCCO [ethyleneglycol monobutyl ether]
10,25.3,"CCO [ethanol, reference compound]"

# Same assay, conditions: Table 4, exemplary solvents
row,Compound,Dielectric Constant
1,C1CCOC1 [tetrahydrofuran],7.52
2,C[S+](C)[O-] [dimethylsulfoxide],47.2
3,O=S1(=O)CCCC1 [sulfolane],43.26
4,"CCO [ethanol, reference compound]",25.3
